Experimental data as given in the NIST ThermoML archive (doi:10.1021/je800110r).

Conditions: 293.15 K, Liquid, Vibrating tube method

CCCCCCCCCC [decane]
Conditions | mass density [kg/m3]
17005 kPa | 742.2
17022 kPa | 742.3
17041 kPa | 742.3
17058 kPa | 742.3
17074 kPa | 742.3
17089 kPa | 742.1
17103 kPa | 742.4
17122 kPa | 742.2
17142 kPa | 742.2
17156 kPa | 742.3
17176 kPa | 742.3
17193 kPa | 742.3
17207 kPa | 742.3
17227 kPa | 742.3
17240 kPa | 742.3
17257 kPa | 742.4
17274 kPa | 742.5
17296 kPa | 742.3
17313 kPa | 742.4
17338 kPa | 742.4
17352 kPa | 742.4
17370 kPa | 742.4
17390 kPa | 742.4
17410 kPa | 742.4
17425 kPa | 742.4
17440 kPa | 742.5
17453 kPa | 742.5
17471 kPa | 742.5
17486 kPa | 742.5
17508 kPa | 742.5
17521 kPa | 742.6
17538 kPa | 742.6
17558 kPa | 742.6
17571 kPa | 742.6
17589 kPa | 742.5
17610 kPa | 742.6
17627 kPa | 742.7
17648 kPa | 742.6
17663 kPa | 742.6
17679 kPa | 742.6
17699 kPa | 742.6
17715 kPa | 742.7
17736 kPa | 742.7
17752 kPa | 742.7
17772 kPa | 742.8
17787 kPa | 742.6
17806 kPa | 742.7
17828 kPa | 742.8
17849 kPa | 742.7
17868 kPa | 742.8
17883 kPa | 742.8
17899 kPa | 742.8
17913 kPa | 742.8
17931 kPa | 742.9
17955 kPa | 743
17969 kPa | 742.9
17985 kPa | 743
18004 kPa | 742.9
18017 kPa | 742.9
18036 kPa | 742.9
18058 kPa | 743
18072 kPa | 743
18088 kPa | 743
18102 kPa | 742.9
18118 kPa | 742.9
18140 kPa | 743
18162 kPa | 742.9
18178 kPa | 743.2
18195 kPa | 743
18214 kPa | 743
18233 kPa | 743
18256 kPa | 742.9
18273 kPa | 743.2
18295 kPa | 743
18317 kPa | 743
18342 kPa | 743.1
18359 kPa | 743.1
18381 kPa | 743.1
18400 kPa | 743.1
18418 kPa | 743.2
18434 kPa | 743.1
18457 kPa | 743.3
18474 kPa | 743.3
18500 kPa | 743.2
18520 kPa | 743.3
18538 kPa | 743.2
18560 kPa | 743.3
18581 kPa | 743.3
18599 kPa | 743.3
18622 kPa | 743.3
18645 kPa | 743.4
18663 kPa | 743.4
18686 kPa | 743.3
18701 kPa | 743.3
18728 kPa | 743.3
18745 kPa | 743.3
18766 kPa | 743.4
18793 kPa | 743.4
18811 kPa | 743.5
18832 kPa | 743.4
18849 kPa | 743.4
18871 kPa | 743.5
18888 kPa | 743.5
18912 kPa | 743.5
18936 kPa | 743.6
18955 kPa | 743.5
18976 kPa | 743.6
19001 kPa | 743.6
19019 kPa | 743.6
19043 kPa | 743.6
19062 kPa | 743.5
19077 kPa | 743.5
19096 kPa | 743.7
19115 kPa | 743.7
19134 kPa | 743.7
19153 kPa | 743.7
19172 kPa | 743.6
19191 kPa | 743.6
19259 kPa | 743.8
19307 kPa | 743.7
19325 kPa | 743.7
19340 kPa | 743.7
19353 kPa | 743.9
19374 kPa | 743.8
19395 kPa | 743.9
19408 kPa | 743.8
19424 kPa | 743.9
19451 kPa | 743.9
19464 kPa | 743.9
19480 kPa | 743.8
19495 kPa | 743.8
19511 kPa | 743.8
19524 kPa | 743.8
19536 kPa | 743.9
19556 kPa | 743.9
19575 kPa | 744
19589 kPa | 743.9
